Results on one substance are retold here after patent US7560609B2, “Diabetic model” (priority 2001, dated 2009).

The experiment can be described thus: Insulin sensitivity test. The experiment is classed as in vivo, bank voles. The following applies: 60 minutes following insulin. The procedure: In the Group A bank voles (n=101), four female animals were found positive for glucosuria and blood glucose values of 215, 302, 313 and 340 mg/dl, respectively, In the remaining bank voles, the mean blood glucose±S.D. was normally distributed at 101±28 mg/dl. The body weight of the trapped voles from group A ranged from 8.5-28.4 g, the mean value±S.D. was 19±5 g. Occasional hyperglycemic and glucosuric bank voles may therefore be trapped in the wild. Whether these four animals had stress-induced hyperglycemia or overt diabetes remains to be established. […] As many as 18/22 (82%) had ketones and were polydipsic. […] We therefore next examined the pancreas histology in non-diabetic and diabetic bank voles to test if the classification of type 1 diabetes was supported by a loss of beta cells.

Consider “Actrapid: insulin (Actrapid, Novo Nordisk, Copenhagen, Denmark) used in the insulin sensitivity test”, for which the “decrease in blood glucose” value (eight animals with blood glucose <120 mg/dl) was found to be 40%, the “decrease in blood glucose” value (four animals with blood glucose at 120-200 mg/dl) came to 60% and the “decrease in blood glucose” value (four animals with blood glucose levels above 200 mg/dl) turned out to be 30%.
